Results taken from patent US20180344763A1, “METHODS FOR ADVERSELY AFFECTING BIOFILMS” (Commonwealth Scientific and Industrial Research Organisation, priority 2015, published 2018).
In brackets after ≈: the same amount, converted by molar mass. One block for each compound: values may come before it.

Assays:
C. albicans biofilms = assay: Antimicrobial susceptibility of single biofilm (XTT, biofilm MIC80); format: cell-based, Candida albicans; conditions: for Biofilm MIC80: C. albicans single species biofilm, 48 h treatment; for Activity against C. albicans monomicrobial biofilms: compared with planktonic growth
Protocol: (§1) Single biofilms of S. aureus or C. albicans were set up in 96-well microplates as described above. After overnight incubation, the cell suspensions were aspirated and the wells were rinsed twice with 100 μL of PBS per well to remove non-adherent cells. Two hundred microlitres of antimicrobial agents were added into each well, and the treatments lasted for 18 h for S. aureus and 48 h for C. albicans. After the treatment, the suspensions were removed and the microwells were washed twice with PBS. Two hundred microlitres of 2, 3-bis (2-methoxy-4-nitro-5-sulfophenyl)-5-[(phenylamino) carbonyl]-2H-tetrazolium hydroxide (XTT, 0.5 mg/L) solution were added into each well and the microplate were incubated at 37° C. in the dark for 2 h. One hundred microliters of XTT solution were transferred to a new microplate and read at OD492. Alternatively, the efficacy of antimicrobial agents against biofilms was determined based on the reduction in viable counts after exposure to antimicrobials. The ratio of cell survival (cell density after antimicrobial treatment) relative to antimicrobial-free culture (cell density of the drug-free biofilms) (×100) was calculated.

C. albicans [1] = assay: Broth microdilution MIC, planktonic cells; format: cell-based, Candida albicans; conditions: C. albicans single species culture, RPMI-1640, 48 h
Protocol: (§2) Minimum inhibitory concentrations (MICs) for antibacterial and antifungal agents were determined using the broth microdilution method according to CLSI guidelines M07-A9 (for S. aureus) and M27-A3 (for C. albicans), but replacing Muller-Hinton broth with RPMI-1640 for antibacterial MIC testing. One hundred microlitres of two-fold serial dilutions of the drugs prepared in RPMI-1640 were added into the wells of 96-well microplates. Exponentially grown cultures were diluted in RPMI-1640 to a density of ˜1×10^3 CFU/mL for C. albicans and ˜1×10^6 CFU/mL for S. aureus and 100 μL were added to each well. Microplates were incubated for 18 h at 35° C. for S. aureus and 48 h for C. albicans. Bacterial or fungal growth was examined visually with the aid of a mirror reader. The antibacterial MIC was defined as the lowest concentration resulting in complete growth inhibition. The MIC of antifungals was read as the lowest concentration that prevents discernible growth for amphotericin B or polymers, or as the lowest concentration that inhibits at least 50% of fungal growth for fluconazole and caspofungin, corresponding to a score of zero or two in the CLSI M27-A3 protocol.

S. aureus biofilms = assay: Antimicrobial susceptibility of single biofilm (XTT, biofilm MIC80); format: cell-based, Staphylococcus aureus; conditions: S. aureus single species biofilm, 18 h treatment
Protocol: as §1

[2] = tested on: C. albicans-S. aureus polymicrobial biofilms; assay: Catheter lock solution re-growth assay (MBEC); format: cell-based, Candida albicans and Staphylococcus aureus; conditions: polymicrobial 24 h biofilm, 18 h exposure
Protocol: (§3) Biofilms were washed three times with saline to remove the residual antimicrobial agents. Two hundred microliter volumes of TSB were then added to each well and microplates were incubated at 35° C. for a further 48 h. A microplate shaker (speed 2) ([…], Flow laboratories, Germany) was used to facilitate the multiplication and release of any living cells remaining in the biofilms. After 48 h, 150 μL of the contents in each well in the microplate was transferred to a U-bottom microplate and examined visually for turbidity. The lowest concentration of antimicrobial agents corresponding to clear wells was defined as the minimum biofilm eradication concentration (MBEC) for successful use as CLS.

[3] = tested on: C. albicans 24 h single biofilms; assay: Catheter lock solution re-growth assay (MBEC); format: cell-based, Candida albicans; conditions: C. albicans 24 h biofilm, 18 h exposure
Protocol: as §3

[4] = tested on: S. aureus 24 h single biofilms; assay: Catheter lock solution re-growth assay (MBEC); format: cell-based, Staphylococcus aureus; conditions: S. aureus 24 h biofilm, 18 h exposure
Protocol: as §3

S. aureus [5] = assay: Broth microdilution MIC, planktonic cells; format: cell-based; conditions: Staphylococcus aureus; S. aureus single species culture, RPMI-1640, 18 h
C. albicans [6] = assay: Planktonic MIC in presence or absence of isolated biofilm matrix; format: cell-based, Candida albicans
Protocol: as §2
(§4) Extracellular matrix was isolated from Candida or polymicrobial biofilms following the method reported in PLoS pathogens 2012, 8:e1002848. Biofilms were established by growing cultures in 6-well TCPS microplates for 48 h at 37° C. Supernatants were carefully removed from each well and the biofilms were washed once with sterile distilled water. One millilitre of distilled water was added into each well, and the biofilms were removed using a cell scraper. This step was repeated three times. The suspensions containing dislodged biofilms were then transferred into a 50 ml Falcon tube, sonicated with a Branson Sonicator for 10 min (duty cycle constant, output 20%). The suspensions were vortexed for 2 min at full speed (4×30 s), prior to centrifugation at 6000 rpm for 15 min for 5 times. The supernatants containing the extracellular matrix were removed and stored at −20° C. […]

S. aureus [7] = assay: as above; format: cell-based, Staphylococcus aureus
Protocol: as §2, §4

Compound: C[C@@H]1[C@H](O)[C@@H](C)/C=C/C=C/C=C/C=C/C=C/C=C/C=C/[C@H](O[C@@H]2O[C@H](C)[C@@H](O)[C@H](N)[C@@H]2O)C[C@@H]2O[C@](O)(C[C@@H](O)C[C@@H](O)[C@H](O)CC[C@@H](O)C[C@@H](O)CC(=O)O[C@H]1C)C[C@H](O)[C@H]2C(=O)O [Amphotericin B, amphotericin B]
Biofilm MIC80 (C. albicans biofilms): 1 µg/mL
Activity against C. albicans monomicrobial biofilms (C. albicans biofilms): retaining their activities
Planktonic MIC (C. albicans [1]): 1 µg/mL

Compound: CCO [Ethanol, ethanol]
MBEC as catheter lock solution [2]: 20% (V/V)
MBEC as catheter lock solution ([2]; listed as ethanol): 20 % (V/V)
MBEC as catheter lock solution [3]: 20% (V/V)
MBEC as catheter lock solution [4]: 20% (V/V)

Compound: Cc1onc(-c2ccccc2)c1C(=O)N[C@@H]1C(=O)N2[C@@H]1SC(C)(C)[C@@H]2C(=O)O [Oxacillin, oxacillin]
Biofilm MIC80 (S. aureus biofilms): >1024 µg/mL
MIC (S. aureus [5]): 0.06 µg/mL (≈ 0.149 µM)

Compound: CO[C@H]1/C=C/O[C@@]2(C)Oc3c(C)c(O)c4c(O)c(c(/C=N/N5CCN(C)CC5)c(O)c4c3C2=O)NC(=O)/C(C)=C\C=C\[C@H](C)[C@H](O)[C@@H](C)[C@@H](O)[C@@H](C)[C@H](OC(C)=O)[C@@H]1C [Rifampicin, rifampicin]
Biofilm MIC80 (S. aureus biofilms): >1024 µg/mL
MIC (S. aureus [5]): 0.015 µg/mL (≈ 0.0182 µM)

Compound: CN[C@H](CC(C)C)C(=O)N[C@H]1C(=O)N[C@@H](CC(N)=O)C(=O)N[C@H]2C(=O)N[C@H]3C(=O)N[C@H](C(=O)N[C@H](C(=O)O)c4cc(O)cc(O)c4-c4cc3ccc4O)[C@H](O)c3ccc(c(Cl)c3)Oc3cc2cc(c3O[C@@H]2O[C@H](CO)[C@@H](O)[C@H](O)[C@H]2O[C@H]2C[C@](C)(N)[C@H](O)[C@H](C)O2)Oc2ccc(cc2Cl)[C@H]1O [Vancomycin, vancomycin]
MIC, C. albicans biofilm matrix (S. aureus [7]; S. aureus, in presence of C. albicans biofilm matrix): 1 µg/mL
MIC, polymicrobial biofilm matrix (S. aureus [7]; S. aureus, in presence of polymicrobial biofilm matrix): 2 µg/mL
MIC (S. aureus [7]; Staphylococcus aureus, read-out: MIC, medium only): 2 µg/mL (≈ 1.38 µM)
Biofilm MIC80 (S. aureus biofilms): >1024 µg/mL
MIC (S. aureus [5]): 1 µg/mL (≈ 0.69 µM)

More lines, main results first:

Biofilm MIC80 (S. aureus biofilms): >1024 µg/mL
Compound: O=C(O)c1cn(C2CC2)c2cc(N3CCNCC3)c(F)cc2c1=O [Ciprofloxacin, ciprofloxacin]

Biofilm MIC80 (C. albicans biofilms): >1024 µg/mL
Increase in MIC in presence of biofilm matrix (C. albicans [6]; C. albicans or polymicrobial biofilm matrix): 16 fold
MIC, C. albicans biofilm matrix (C. albicans [6]; in presence of C. albicans biofilm matrix): 8 µg/mL
MIC, polymicrobial biofilm matrix (C. albicans [6]; in presence of polymicrobial biofilm matrix): 8 µg/mL
Compound: OC(Cn1cncn1)(Cn1cncn1)c1ccc(F)cc1F [Fluconazole, fluconazole]

Biofilm MIC80 (C. albicans biofilms): 0.12 µg/mL
MIC (C. albicans [1]; Candida albicans): 1 µg/mL (≈ 0.915 µM)
Compound: CC[C@H](C)C[C@H](C)CCCCCCCCC(=O)N[C@H]1C[C@@H](O)[C@@H](NCCN)NC(=O)[C@@H]2[C@@H](O)CCN2C(=O)[C@H]([C@H](O)CCN)NC(=O)[C@H]([C@H](O)[C@@H](O)c2ccc(O)cc2)NC(=O)[C@@H]2C[C@@H](O)CN2C(=O)[C@H]([C@@H](C)O)NC1=O [Caspofungin, caspofungin]
Activity against C. albicans monomicrobial biofilms (C. albicans biofilms): retaining their activities
